{"source": "paper PMC7939473", "about": "“Unique active-site and subsite features in the arabinogalactan-degrading GH43 exo-β-1,3-galactanase from Phanerochaete chrysosporium” (The Journal of Biological Chemistry, 2021)", "target": "T1, Pc1,3Gal43A (Phanerodontia chrysosporium, UniProt Q50KB2, E208A)", "T1 construct": "signal peptide removed; Gln21-Tyr448 (428 residues) plus two extra N-terminal residues Glu19-Phe20 from restriction site; GH43_sub24 catalytic domain (21-325) + CBM35 (326-448); expressed in Pichia pastoris, N-glycosylated at Asn79, Asn194, Asn389; monomer in solution", "T1 sequence (Q50KB2 entry or part of it E208A)": "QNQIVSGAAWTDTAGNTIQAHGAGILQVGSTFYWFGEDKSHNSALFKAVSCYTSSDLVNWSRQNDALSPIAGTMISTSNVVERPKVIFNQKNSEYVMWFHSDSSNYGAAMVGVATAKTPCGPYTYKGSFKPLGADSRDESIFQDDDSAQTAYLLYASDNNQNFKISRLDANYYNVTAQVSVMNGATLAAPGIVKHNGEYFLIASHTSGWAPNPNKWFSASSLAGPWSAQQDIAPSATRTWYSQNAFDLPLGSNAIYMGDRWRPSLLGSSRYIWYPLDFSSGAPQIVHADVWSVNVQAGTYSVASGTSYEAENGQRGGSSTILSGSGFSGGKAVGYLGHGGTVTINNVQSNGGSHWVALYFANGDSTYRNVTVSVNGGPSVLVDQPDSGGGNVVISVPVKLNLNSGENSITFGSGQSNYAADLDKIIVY", "experiment": "X-ray crystallography (co-crystal, […] Å)", "conditions": "ligand-binding site of the CBM35 domain (not in catalytic site); 10 mM Gal3; pH 4.5"}
{"smiles": "OC[C@H]1O[C@@H](O[C@H]2[C@@H](O)[C@@H](CO)O[C@@H](O[C@H]3[C@@H](O)[C@@H](CO)OC(O)[C@@H]3O)[C@@H]2O)[C@H](O)[C@@H](O)[C@H]1O", "note": "(stereo partly drawn) [Gal3, β-1,3-galactotriose]", "values": [{"measurement": "X-ray crystallography (co-crystal, 2.3 Å)", "result": "In E208A_Gal3, electron density of Gal3 was observed in the ligand-binding site of PcCBM35"}]}
